Assay results from PubChem BioAssay (NCI).
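Tested at 5 concentrations; 48 h exposure; 96-well plates; endpoints linearly interpolated, else capped at highest concentration. TGI: concentration producing complete growth inhibition.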

Legend:
Assay in all cases: DTP human tumour cell line panel, 48 h
[1] = system: U251 CNS
[2] = system: SN12C renal
[3] = system: UO-31 renal
[4] = system: SR leukemia
[5] = system: UACC-257 melanoma
[6] = system: OVCAR-5 ovarian
[7] = system: CCRF-CEM leukemia
[8] = system: M14 melanoma
[9] = system: SK-MEL-5 melanoma
[10] = system: MCF7 breast
[11] = system: HT29 colon
[12] = system: SK-OV-3 ovarian
[13] = system: UACC-62 melanoma
[14] = system: LOX IMVI melanoma
[15] = system: 786-0 renal
[16] = system: BT-549 breast
[17] = system: NCI-H460 lung
[18] = system: SK-MEL-28 melanoma
[19] = system: IGROV1 ovarian

| SMILES | TGI [1] [µM] | TGI [2] [µM] | TGI [3] [µM] | TGI [4] [µM] | TGI [5] [µM] | TGI [6] [µM] | TGI [7] [µM] | TGI [8] [µM] | TGI [9] [µM] | TGI [10] [µM] | TGI [11] [µM] | TGI [12] [µM] | TGI [13] [µM] | TGI [14] [µM] | TGI [15] [µM] | TGI [16] [µM] | TGI [17] [µM] | TGI [18] [µM] | TGI [19] [µM] |
| --- | --- | --- | --- | --- | --- | --- | --- | --- | --- | --- | --- | --- | --- | --- | --- | --- | --- | --- | --- |
| COc1cccc(Cc2cc(=O)c3ccc(C)nc3[nH]2)c1 | > 100 | > 100 | > 100 | > 100 | > 100 | > 100 | > 100 | > 100 | > 100 | > 100 | > 100 | > 100 | > 100 | > 100 | > 100 | > 100 | > 100 | > 100 | > 100 |
| COc1cc(N(Cc2ccc3nc(OC)c(OC)nc3c2)Cc2ccc3nc(OC)c(OC)nc3c2)cc(OC)c1OC | > 50 | > 50 | > 50 | > 50 | > 50 | > 50 | – | > 50 | > 50 | > 50 | > 50 | > 50 | > 50 | > 50 | > 50 | > 50 | – | > 50 | – |
| O=c1c2cc([N+](=O)[O-])ccc2nc2n1CCCCC2 | > 100 | > 100 | > 100 | > 100 | > 100 | > 100 | > 100 | > 100 | > 100 | > 100 | > 100 | > 100 | > 100 | > 100 | > 100 | > 100 | > 100 | > 100 | > 100 |
| O=C1CCCC2C3CC(CN12)C1CCCCN1C3 (stereo not drawn) | > 100 | > 100 | > 100 | > 100 | > 100 | > 100 | > 100 | > 100 | > 100 | > 100 | > 100 | > 100 | > 100 | > 100 | > 100 | > 100 | > 100 | > 100 | > 100 |
| c1ccc(C(=NNc2cnc3ccccc3n2)c2ccccn2)cc1 | 23.8 | 24 | 3.25 | 10.9 | 17.5 | 27.1 | 28.3 | 10.9 | 16 | 12.2 | 17.7 | > 44.6 | 20.2 | – | 15.4 | 24.5 | 10.5 | 55.5 | 11.5 |
| O=[N+]([O-])c1cc(Cl)cc2cc(Br)cnc12 | > 31.6 | > 31.6 | > 31.6 | > 31.6 | > 31.6 | > 31.6 | > 31.6 | > 31.6 | > 31.6 | > 31.6 | > 31.6 | – | > 31.6 | > 31.6 | > 31.6 | > 31.6 | > 31.6 | > 31.6 | > 23.7 |
| Cc1ccc(-c2nc(-c3cnccn3)n(C3OC(CO)C(O)C(O)C3O)n2)cc1 (stereo not drawn) | > 100 | > 100 | > 100 | > 100 | > 100 | > 100 | > 100 | > 100 | > 100 | > 100 | > 100 | – | > 100 | > 100 | > 100 | > 100 | > 100 | > 100 | > 100 |
| COC(=O)CSC(=S)Nc1nnc(NC(=S)SCOC(C)=O)n1C(=S)SCC(=O)OC | > 100 | > 100 | > 100 | > 100 | > 100 | > 100 | > 100 | > 100 | > 100 | > 100 | > 100 | – | > 100 | > 100 | > 100 | > 100 | > 100 | > 100 | > 100 |
| Cc1cc(-c2nc3ccc(F)cc3s2)ccc1N | > 100 | > 100 | > 100 | > 100 | > 100 | > 100 | > 100 | > 100 | > 100 | > 100 | > 100 | – | > 100 | > 100 | > 100 | > 100 | – | > 100 | > 100 |
| CC(C)=CCN1c2ccc(Cl)cc2NC(=O)CC1C (stereo not drawn) | 76.6 | 58 | > 100 | > 100 | 47.3 | > 100 | > 100 | 36.1 | 32.2 | 45.6 | 37.2 | > 100 | – | 33.2 | 34.8 | 59.5 | 37.6 | > 100 | 62.4 |
| CC(=O)O[C@H]1C(=O)[C@@]2(C)[C@H]([C@H](OC(=O)c3ccccc3)[C@]3(O)C[C@H](OC(=O)[C@H](O)[C@@H](NC(=O)C(C)(C)C)c4ccccc4)C(C)=C1C3(C)C)[C@]1(OC(C)=O)CO[C@@H]1C[C@@H]2O | > 3.9 | > 10 | – | > 2.58 | > 10 | > 8.6 | > 10 | > 4.71 | > 10 | > 10 | > 10 | 0.368 | > 10 | > 10 | > 5.47 | > 10 | > 10 | > 10 | > 10 |
| CN(C)Cc1cc(C=O)cc(CN(C)C)c1O | > 100 | > 100 | > 100 | > 100 | > 100 | – | > 100 | – | > 100 | > 100 | > 100 | – | – | > 100 | > 100 | > 100 | > 100 | > 100 | > 100 |
